Columns and labels:
Type in all cases: in vivo
[1] = test system: Alopecurus myosuroides (ALOMY); test: Biological Example 1 glasshouse screen, pre-emergence herbicidal activity; settings: 312 h, application rate 250 g/ha, evaluated after 13 days, read-out: ALOMY percentage phytotoxicity
Summary of the method: (§1)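 Seeds sown in standard soil in pots were sprayed 1 day (pre-emergence) or 8 days (post-emergence) after sowing with technical active ingredient in acetone/water (50:50) containing 0.5% Tween 20. Plants grown at 24/16°C day/night, 14 h light, 65% humidity. Visual % phytotoxicity scored after 13 days (100% = total damage).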

[2] = test system: Echinochloa crus-galli (ECHCG); test: as above; settings: 312 h, application rate 250 g/ha, evaluated after 13 days, read-out: ECHCG percentage phytotoxicity
Summary of the method: as §1

[3] = test system: Avena fatua (AVEFA); test: as above; settings: 312 h, application rate 250 g/ha, evaluated after 13 days, read-out: AVEFA percentage phytotoxicity
Summary of the method: (§2)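 Pots in a glasshouse (24/16°C day/night, 14 h light, 65% humidity) were sprayed one day after sowing (pre-emergence) or after 8 days (post-emergence), using acetone/water (50:50) with 0.5% Tween 20. Phytotoxicity was scored visually as % damage (0-100) 13 days after application.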

[4] = test system: Lolium perenne (LOLPE); test: as above; settings: 312 h, application rate 250 g/ha, evaluated after 13 days, read-out: LOLPE percentage phytotoxicity
Summary of the method: as §2

[5] = test system: Alopecurus myosuroides (ALOMY); test: Biological Example 1 glasshouse screen, post-emergence herbicidal activity; settings: 312 h, application rate 250 g/ha, evaluated after 13 days, read-out: ALOMY percentage phytotoxicity
Summary of the method: as §1

[6] = test system: Echinochloa crus-galli (ECHCG); test: as above; settings: 312 h, application rate 250 g/ha, evaluated after 13 days, read-out: ECHCG percentage phytotoxicity
Summary of the method: as §1

[7] = test system: Avena fatua (AVEFA); test: as above; settings: 312 h, application rate 250 g/ha, evaluated after 13 days, read-out: AVEFA percentage phytotoxicity
Summary of the method: as §2

[8] = test system: Lolium perenne (LOLPE); test: as above; settings: 312 h, application rate 250 g/ha, evaluated after 13 days, read-out: LOLPE percentage phytotoxicity
Summary of the method: as §2

[9] = test system: Alopecurus myosuroides (ALOMY); test: Biological Example 4B (not-previously-formulated compounds) post-emergence herbicidal activity on grassy weeds; settings: 14 DAA, technical compound in IF50 + Adigor, mean of two
Method: (§3) Seeds of a variety of test species are sown in standard soil in pots. After cultivation for 14 days under controlled conditions in a glasshouse (at 22/16°C., day/night; 16 hours light; 65% humidity), the plants are sprayed with an aqueous spray solution derived from the formulation of the technical active ingredient dissolved in acetone plus IF50 containing
(§4) 10.56 wt % Emulsogen™EL (castor oil ethoxylate, CAS Registry number 61791-12-6)
(§5) 42.22 wt % N-Methyl pyrrolidone
(§6) 42.22 wt % dipropylene glycol monoethyl ether
(§7) at a 1:20 ratio of (technical active ingredient:IF50). The adjuvant Adigor™(an adjuvant containing inter alia methylated rapeseed oil, e.g. available from Syngenta) is added to form a 0.5% v/v solution. The test plants are then grown on under controlled conditions in the glasshouse (at 22/16°C., day/night; 16 hours light; 65% humidity) and are watered twice daily. After 14 days the test is evaluated (100%=total damage to plant; 0%=no damage to plant).
(§8) […] Herbicidal activity (phytotoxicity) is evaluated visually, and an assessed percentage phytotoxicity score is given for each herbicidal application on each plant species (with 100%=total damage to plant; 0%=no damage to plant). Two repetitions are made for each experiment, and the mean herbicidal activity (phytotoxicity) data is reported.
(§9) Test plants: Avena fatua (AVEFA), Lolium multiflorum (LOLMU), Setaria viridis (SETVI), Poa annua (POAAN), Alopecurus myosuroides (ALOMY). All five of these are grassy monocotyledonous weeds.

[10] = test system: Avena fatua (AVEFA); test: as above; settings: 14 DAA, technical compound in IF50 + Adigor, mean of two
Method: as §3, §4, §5, §6, §7, §8, §9

[11] = test system: Poa annua (POAAN); test: as above; settings: 14 DAA, technical compound in IF50 + Adigor, mean of two
Method: as §3, §4, §5, §6, §7, §8, §9

[12] = test system: Setaria viridis (SETVI); test: as above; settings: 14 DAA, technical compound in IF50 + Adigor, mean of two
Method: as §3, §4, §5, §6, §7, §8, §9

[13] = test system: Lolium multiflorum (LOLMU); test: as above; settings: 14 DAA, technical compound in IF50 + Adigor, mean of two
Method: as §3, §4, §5, §6, §7
(§10) Post-emergence herbicidal activity (phytotoxicity) data, on certain grassy monocotyledonous weeds and cereal crops in a glasshouse, are measured 14 days after application of the herbicide (14 DAA), for (a) a […] the same time as the herbicide, and (b) for a post-emergence application rate of 30 g/ha of the test herbicide with 50 g/ha of cloquintocet-mexyl safener applied at substantially the same time as the herbicide. Herbicidal activity (phytotoxicity) is evaluated visually, and an assessed percentage phytotoxicity score is given for each herbicidal application on each plant species (with 100%=total damage to plant; 0%=no damage to plant). Two repetitions are made for each experiment, and the mean herbicidal activity (phytotoxicity) data is reported.
as §9

[14] = test system: Winter Barley “Suzuka”; test: Biological Example 4B post-emergence phytotoxicity on cereal crops; settings: 14 DAA, technical compound in IF50 + Adigor, mean of two
Method: as §3, §4, §5, §6, §7, §8

[15] = test system: Winter Wheat “Hereward”; test: as above; settings: 14 DAA, technical compound in IF50 + Adigor, mean of two
Method: as §3, §4, §5, §6, §7, §8

[16] = test system: Spring Wheat “Teal”; test: as above; settings: 14 DAA, technical compound in IF50 + Adigor, mean of two
Method: as §3, §4, §5, §6, §7, §10

[17] = test system: Spring Barley “Harrington”; test: as above; settings: 14 DAA, technical compound in IF50 + Adigor, mean of two
Method: as §3, §4, §5, §6, §7
Post-emergence herbicidal activity (phytotoxicity) data, on certain grassy monocotyledonous weeds and cereal crops in a glasshouse, are measured 14 days after application of the herbicide (14 DAA), for (a) a post-emergence application rate of 60 g/ha of the test herbicide with or without 50 g/ha of cloquintocet-mexyl safener applied at substantially the same time as the herbicide, and (b) for a post-emergence application rate of 30 g/ha of the test herbicide with 50 g/ha of cloquintocet-mexyl safener applied at substantially the same time as the herbicide. Herbicidal activity (phytotoxicity) is evaluated visually, and an assessed percentage phytotoxicity score is given for each herbicidal application on each plant species (with 100%=total damage to plant; 0%=no damage to plant). Two repetitions are made for each experiment, and the mean herbicidal activity (phytotoxicity) data is reported.

[18] = test system: Spring Barley “Harrington”; test: as above; settings: cloquintocet-mexyl 50 g/ha, 14 DAA, technical compound in IF50 + Adigor, mean of two
[19] = 7.5 g/ha, cloquintocet-mexyl 50 g/ha
[20] = 15 g/ha, cloquintocet-mexyl 50 g/ha
[21] = 30 g/ha, cloquintocet-mexyl 50 g/ha
[22] = 60 g/ha, cloquintocet-mexyl 0 g/ha
[23] = 60 g/ha, cloquintocet-mexyl 50 g/ha

`CC#Cc1cc(C)c(C2C(=O)CC(Cc3ccccn3)C2=O)c(CC)c1` (centres unmarked) [Compound A-26] was tested, and the pest or weed control at 250 g/ha [1] was 100%, the pest or weed control at 250 g/ha [2] was 100% and the pest or weed control at 250 g/ha [3] was 100%. For the same compound, the pest or weed control at 250 g/ha [4] was 100%, the pest or weed control at 250 g/ha [5] was 100% and the pest or weed control at 250 g/ha [6] was 100%. It also gave a pest or weed control at 250 g/ha [7] of 100%, a pest or weed control at 250 g/ha [8] of 100% and an ALOMY % phytotoxicity [9, 19] of 97%. It also gave an ALOMY % phytotoxicity [9, 20] of 99%, an ALOMY % phytotoxicity [9, 21] of 100% and an ALOMY % phytotoxicity [9, 22] of 100%. It also gave an ALOMY % phytotoxicity [9, 23] of 100%, an AVEFA % phytotoxicity [10, 19] of 83% and an AVEFA % phytotoxicity [10, 20] of 99%. For the same compound, the AVEFA % phytotoxicity [10, 21] was 100%, the AVEFA % phytotoxicity [10, 22] was 100% and the AVEFA % phytotoxicity [10, 23] was 100%. For the same compound, the POAAN % phytotoxicity [11, 19] was 0%, the POAAN % phytotoxicity [11, 20] was 13% and the POAAN % phytotoxicity [11, 21] was 33%. For the same compound, the POAAN % phytotoxicity [11, 22] was 73%, the POAAN % phytotoxicity [11, 23] was 70% and the SETVI % phytotoxicity [12, 19] was 68%. The SETVI % phytotoxicity [12, 20] was 95%, the SETVI % phytotoxicity [12, 21] was 100% and the SETVI % phytotoxicity [12, 22] was 100%. It also gave an SETVI % phytotoxicity [12, 23] of 100%, an LOLMU % phytotoxicity [13, 19] of 90% and an LOLMU % phytotoxicity [13, 20] of 100%. The LOLMU % phytotoxicity [13, 21] was 100%, the LOLMU % phytotoxicity [13, 22] was 100% and the LOLMU % phytotoxicity [13, 23] was 100%. The “Winter Barley “Suzuka” phytotoxicity (%)” value [14, 19] was 4%, the “Winter Barley “Suzuka” phytotoxicity (%)” value [14, 20] was 53% and the “Winter Barley “Suzuka” phytotoxicity (%)” value [14, 21] was 100%. For the same compound, the “Winter Barley “Suzuka” phytotoxicity (%)” value [14, 22] was 100%, the “Winter Barley “Suzuka” phytotoxicity (%)” value [14, 23] was 100% and the “Winter Wheat “Hereward” phytotoxicity (%)” value [15, 19] was 30%. For the same compound, the “Winter Wheat “Hereward” phytotoxicity (%)” value [15, 20] was 80%, the “Winter Wheat “Hereward” phytotoxicity (%)” value [15, 21] was 90% and the “Winter Wheat “Hereward” phytotoxicity (%)” value [15, 22] was 99%. The “Winter Wheat “Hereward” phytotoxicity (%)” value [15, 23] was 98%, the “Spring Wheat “Teal” phytotoxicity (%)” value [16, 19] was 23% and the “Spring Wheat “Teal” phytotoxicity (%)” value [16, 20] was 78%. The “Spring Wheat “Teal” phytotoxicity (%)” value [16, 21] was 93%, the “Spring Wheat “Teal” phytotoxicity (%)” value [16, 22] was 100% and the “Spring Wheat “Teal” phytotoxicity (%)” value [16, 23] was 97%. For the same compound, the “Spring Barley “Harrington” phytotoxicity (%)” value [17, 21] was 99%, the “Spring Barley “Harrington” phytotoxicity (%)” value [17, 22] was 100% and the “Spring Barley “Harrington” phytotoxicity (%)” value [17, 23] was 100%. The “Spring Barley “Harrington” phytotoxicity (%)” value ([18]; 7.5 g/ha) was 10% and the “Spring Barley “Harrington” phytotoxicity (%)” value ([18]; 15 g/ha) was 80%.

Reference: patent publication US9107415B2, “2-(substituted-phenyl)-cyclopentane-1,3-dione compounds, and derivatives thereof” (Syngenta Limited, priority 2011, dated 2015)
